ED50 data for 17 compounds are collected here from patent publication US5077405A, “3-(1-Substituted-4-piperazinyl)-1H-indazoles” (Hoechst-Roussel Pharmaceuticals Incorporated, priority 1990, dated 1991).

Where a name gives a salt, the structure may show the parent alone.

In assay [1] the test system is mice. As to the kind of experiment: 2-phenyl-1,4-benzoquinone-induced writhing test in mice (analgesia). Type of assay: in vivo. Particulars: Mus musculus, sc, read-out: Dose (subcutaneous) [ED50], inhibition of writhing. Background: Writhing tests count abdominal constrictions after an irritant is injected.
In assay [2] the test system is mice. In words: climbing mice assay (apomorphine-induced climbing; antipsychotic activity). Conditions: Mus musculus, read-out: Antipsychotic Activity (Climbing Mice Assay) ED50. Type of assay: in vivo, CK-1 male mice. The protocol: Antipsychotic activity is determined in the climbing mice assay by methods similar to those described by P. Protais, et al., Psychopharmacol, 50, 1 (1976) and B. Costall, Eur. J. Pharmacol., 50, 39 (1978).
The subject CK-1 male mice (23-27 grams) are group-housed under standard laboratory conditions. The mice are individually placed in wire mesh stick cages (4"×4"×10") and are allowed one hour for adaptation and exploration of the new environment. Then apomorphine is injected subcutaneously at 1.5 mg/kg, a dose causing climbing in all subjects for 30 minutes. Compounds to be tested for antipsychotic activity are injected intraperitoneally 30 minutes prior to the apomorphine challenge at a screening dose of 10 mg/kg.
For evaluation of climbing, 3 readings are taken at 10, 20 and 30 minutes after apomorphine administration according to the following scale:
4 paws on bottom (no climbing)
2 paws on the wall (rearing)
4 paws on the wall (full climb)
Mice consistently climbing before the injection of apomorphine are discarded.
With full-developed apomorphine climbing, the animals are hanging onto the cage walls, rather motionless over longer periods of time. By contrast, climbs due to mere motor stimulation usually last only a few seconds.
The climbing scores are individually totaled (maximum score: 6 per mouse over 3 readings) and the total score of the control group (vehicle intraperitoneally-apomorphine subcutaneously) is set to 100%. ED50 values with 95% confidence limits, calculated by a linear regression analysis of some of the compounds of this invention are presented in Table II.

[3] abbreviates: mice, subcutaneous, 2-phenyl-1,4-benzoquinone-induced writhing.
Where [4] appears, read: male mice, ip 30 min before apomorphine 1.5 mg/kg sc, linear regression.

As for `CC(=O)n1nc(N2CCN(C)CC2)c2ccccc21` [1-Acetyl-3-(4-methyl-1-piperazinyl)-1H-indazole], the 50% effective dose (ED50) (usually the dose at which the effect has come halfway, by size or by number of responders) with mice [1] was found to be 2.1 mg/kg.
Turning to `CN1CCN(c2nn(C(=O)c3ccccc3)c3cc(F)ccc23)CC1` [1-Benzoyl-6-fluoro-3-(4-methyl-1-piperazinyl)-1H-indazole], in the assay with mice [1] (setting [3]), the ED50 was determined as 4.3 mg/kg.
On the same count and under the same terms, to `CN1CCN(c2nn(CC3CC3)c3ccccc23)CC1` [1-Cyclopropylmethyl-3-(4-methyl-1-piperazinyl)-1H-indazole] belongs 1.5 mg/kg.
Regarding `CCn1nc(N2CCN(C)CC2)c2ccccc21` [1-ethyl-3-(4-methyl-1-piperazinyl)-1H-indazole], the median effective dose (ED50) with mice [1] was 0.5 mg/kg.
Regarding `c1ccc2c(N3CCNCC3)n[nH]c2c1` [3-(1-piperazinyl)-1H-indazole, 3-(1-Piperazinyl)-1H-indazole], in the assay on mice [1], the ED50 was 0.9 mg/kg.
`CN1CCN(c2n[nH]c3ccccc23)CC1` [3-(4-methyl-1-piperazinyl)-1H-indazole, 3-(4-Methyl-1-piperazinyl)-1H-indazole]: the 50% effective dose (ED50) in the assay on mice [1] is 0.04 mg/kg.
For the compound `Cl.Cl.OCCN1CCN(c2n[nH]c3ccccc23)CC1` [3-[4-(2-Hydroxyethyl)-1-piperazinyl]-1H-indazole dihydrochloride], the ED50 in the assay with mice [1] (setting [3]) amounted to 2 mg/kg.
Regarding `Fc1ccc(C(CCCN2CCN(c3n[nH]c4ccccc34)CC2)c2ccc(F)cc2)cc1` [3-[4-[4,4-Bis(4-fluorophenyl)butyl-1-piperazinyl]-1H-indazole hydrochloride], the 50% effective dose (ED50) in the assay with mice [1] (setting [3]) is 3.6 mg/kg; in the assay with mice [2] (setting [4]), 0.87 mg/kg.
`Cc1[nH]c2ccccc2c1CCCN1CCN(c2n[nH]c3ccccc23)CC1` [3-{4-[3-(2-Methylindol-3-yl)propyl]-1-piperazinyl}-1H-indazole hemifumarate]: the median effective dose (ED50) with mice [2] (setting [4]) worked out at 0.4 mg/kg.
`CN1CCN(c2n[nH]c3ccc(Cl)cc23)CC1` [5-Chloro-3-(4-methyl-1-piperazinyl)-1H-indazole]: the ED50 in the assay on mice [1] was 6.8 mg/kg.
As for `Cl.Fc1ccc2c(N3CCNCC3)n[nH]c2c1` [6-Fluoro-3-(1-piperazinyl)-1H-indazole Hydrochloride], the 50% effective dose (ED50) in the assay on mice [2] (ip) is 6.4 mg/kg.
Same read-out and setting: to `CN1CCN(c2n[nH]c3cc(F)ccc23)CC1` [6-Fluoro-3-(4-methyl-1-piperazinyl)-1H-indazole] belongs 4.7 mg/kg.
`O=c1[nH]c2ccccc2n1CCCN1CCN(c2n[nH]c3cc(F)ccc23)CC1` [6-Fluoro-3-{4-[3-(1,3-dihydro-2-oxo-2H-benzimidazol-1-yl)propyl]-1-piperazinyl}-1H-indazole Hemifumarate]: the ED50 in the assay on mice [2] (setting [4]) is 0.43 mg/kg.
Same read-out and setting: as for `Cn1nc(N2CCN(CCCCN3C(=O)CC4(CCCC4)CC3=O)CC2)c2ccccc21` [8-[4-[1-(1-Methyl-1H-indazol-3-yl)-4-piperazinyl]butyl-8-azaspiro[4,5]decane-7,9-dione fumarate], the figure is 7.3 mg/kg.
Turning to `O=C1CC2(CCCC2)CC(=O)N1CCCCN1CCN(c2n[nH]c3ccccc23)CC1` [8-[4-[1-(1H-indazol-3-yl)-4-piperazinyl]butyl-8-azaspiro[4.5]decane-7,9-dione hemifumarate], the results for the 50% effective dose (ED50) in the assay on mice [1] (setting [3]) and in the assay on mice [2] (setting [4]) were 0.07 mg/kg and 0.6 mg/kg, respectively.
For `O=C(CCCN1CCC(O)(c2ccc(Cl)cc2)CC1)c1ccc(F)cc1` [haloperidol, reference compound], the ED50 in the assay on mice [2] (ip) was 0.11 mg/kg.
Turning to `CCC(=O)O[C@](Cc1ccccc1)(c1ccccc1)[C@H](C)CN(C)C` [propoxyphene, reference compound], the 50% effective dose (ED50) in the assay on mice [1] came out at 3.9 mg/kg.
